Data set [1] is described as follows: Stability in rat plasma at 1 uM after 20 mins by LC-MS/MS analysis. Format: ADME, cell-free. The following applies: read-out: Stability.
The target in another data set is Cytochrome P450 2D6 (Homo sapiens, UniProt P10635). The data set is described as follows: Inhibition of CYP2D6 in human liver microsomes preincubated for 10 mins followed by NADPH addition measured after 10 mins by LC-MS/MS analysis. Format: ADME. (In general: Liver microsomes are a subcellular fraction often used to study metabolism.)
A short description of data set [2]: Stability in rat liver microsomes at 50 uM after 210 mins in presence of NADPH by LC-MS/MS analysis. The data set is classed as ADME, microsome. The following applies: microsomes, 3.5 h, 50 µM.
Data set [3] can be described thus: Stability in rat plasma at 1 uM after 90 mins by LC-MS/MS analysis. The data set is classed as ADME, cell-free. The following applies: read-out: Stability.
The next data set addresses Cytochrome P450 2C9 (Homo sapiens, UniProt P11712). The experiment in a line: Inhibition of CYP2C9 in human liver microsomes preincubated for 10 mins followed by NADPH addition measured after 10 mins by LC-MS/MS analysis. The data set is classed as ADME.
Data set [4] in a line: Stability in rat liver microsomes at 50 uM after 60 mins in presence of NADPH by LC-MS/MS analysis. The data set is classed as ADME, microsome. The following applies: read-out: Stability.
Data set [5] in a line: Protein binding in human plasma at 2 uM after 4 hrs by LC-MS/MS analysis. Format: ADME, cell-free. The following applies: read-out: PPB (converted).
A short description of data set [6]: Stability in rat liver microsomes at 50 uM after 5 mins in presence of NADPH by LC-MS/MS analysis. Format: ADME, microsome. The following applies: microsomes, 5 min, 50 µM.
Data set [7] can be described thus: Stability in rat liver microsomes at 50 uM after 270 mins in presence of NADPH by LC-MS/MS analysis. The data set is classed as ADME, microsome. The following applies: 4.5 h.
A short description of data set [8]: Stability in rat liver microsomes at 50 uM after 20 mins in presence of NADPH by LC-MS/MS analysis. Format: ADME, microsome. The following applies: read-out: Stability.
Data set [9] can be described thus: Half life in rat liver microsomes at 50 uM in presence of NADPH by LC-MS/MS analysis. Format: ADME, microsome.
A short description of data set [10]: Stability in rat plasma at 1 uM after 5 mins by LC-MS/MS analysis. The data set is classed as ADME, cell-free. The following applies: read-out: Stability.
Data set [11] is described as follows: Protein binding in Beagle dog plasma at 2 uM after 4 hrs by LC-MS/MS analysis. Format: ADME, cell-free, Canis lupus familiaris. The following applies: read-out: PPB (converted).
The nature of data set [12]: Stability in rat plasma at 1 uM after 40 mins by LC-MS/MS analysis. Format: ADME, cell-free. The following applies: read-out: Stability.
Data set [13] can be described thus: Stability in rat plasma at 1 uM after 120 mins by LC-MS/MS analysis. The data set is classed as ADME, cell-free. The following applies: read-out: Stability.
The target in a further data set is T1, Cytochrome P450 1A2 (Homo sapiens, UniProt P05177).
T1 sequence (P05177 whole entry): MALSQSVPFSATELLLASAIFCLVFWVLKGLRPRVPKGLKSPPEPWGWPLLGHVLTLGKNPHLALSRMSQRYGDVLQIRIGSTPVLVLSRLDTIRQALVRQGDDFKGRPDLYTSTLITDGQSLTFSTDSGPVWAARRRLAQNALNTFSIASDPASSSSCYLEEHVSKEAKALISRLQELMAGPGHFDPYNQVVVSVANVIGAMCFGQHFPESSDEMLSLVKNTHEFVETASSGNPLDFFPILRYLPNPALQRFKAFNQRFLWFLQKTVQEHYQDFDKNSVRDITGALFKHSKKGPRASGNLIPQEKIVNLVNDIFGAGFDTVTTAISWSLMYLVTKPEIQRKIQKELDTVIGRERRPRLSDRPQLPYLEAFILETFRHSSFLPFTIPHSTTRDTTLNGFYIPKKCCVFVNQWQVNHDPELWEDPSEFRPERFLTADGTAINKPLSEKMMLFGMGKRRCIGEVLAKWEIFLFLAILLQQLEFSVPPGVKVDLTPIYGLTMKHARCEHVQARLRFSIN
The experiment in a line: Inhibition of CYP1A2 in human liver microsomes preincubated for 10 mins followed by NADPH addition measured after 10 mins by LC-MS/MS analysis. Format: ADME.

A short description of data set [14]: Stability in rat plasma at 1 uM after 60 mins by LC-MS/MS analysis. The data set is classed as ADME, cell-free. The following applies: read-out: Stability.
Data set [15] can be described thus: Stability in rat liver microsomes at 50 uM after 40 mins in presence of NADPH by LC-MS/MS analysis. The data set is classed as ADME, microsome. The following applies: read-out: Stability.
Data set [16] can be described thus: Stability in rat liver microsomes at 50 uM after 90 mins in presence of NADPH by LC-MS/MS analysis. Format: ADME, microsome. The following applies: read-out: Stability.
The nature of data set [17]: Protein binding in Sprague-Dawley rat plasma at 2 uM after 4 hrs by LC-MS/MS analysis. Format: ADME, cell-free. The following applies: read-out: PPB (converted).
For the next data set, the target named is Cytochrome P450 3A4 (Homo sapiens, UniProt P08684). The experiment in a line: Inhibition of CYP3A4 in human liver microsomes preincubated for 10 mins followed by NADPH addition measured after 10 mins by LC-MS/MS analysis. The data set is classed as ADME.
Data set [18] in a line: Stability in rat liver microsomes at 50 uM after 150 mins in presence of NADPH by LC-MS/MS analysis. The data set is classed as ADME, microsome. The following applies: read-out: Stability.
A short description of data set [19]: Stability in rat liver microsomes at 50 uM after 10 mins in presence of NADPH by LC-MS/MS analysis. The following applies: microsomes, 10 min, 50 µM. The data set is classed as ADME, microsome.
The next data set addresses Cytochrome P450 2C19 (Homo sapiens, UniProt P33261). The experiment in a line: Inhibition of CYP2C19 in human liver microsomes preincubated for 10 mins followed by NADPH addition measured after 10 mins by LC-MS/MS analysis. The data set is classed as ADME.
Data set [20] in a line: Stability in rat liver microsomes at 50 uM after 120 mins in presence of NADPH by LC-MS/MS analysis. The following applies: read-out: Stability. The data set is classed as ADME, microsome.
A short description of data set [21]: Stability in rat plasma at 1 uM after 10 mins by LC-MS/MS analysis. The data set is classed as ADME, cell-free. The following applies: read-out: Stability.
Data set [22] is described as follows: Clearance in rat liver microsomes at 50 uM in presence of NADPH by LC-MS/MS analysis. The following applies: read-out: CLH. The data set is classed as ADME, microsome.
The test system of data set [23] is Mus musculus. The data set is described as follows: Toxicity in Balb/c mouse assessed as mortality at 20 to 40 mg/kg, iv administered three times in a day every 2 days for 15 consecutive days. Format: organism-based. The following applies: in vivo, 48 h.
Data set [24] has as its system Mus musculus. The data set is described as follows: Toxicity in nude mouse xenografted with human NCI-H460 cells assessed as death at 25 to 100 mg/kg, po qd for 14 consecutive days. Format: organism-based. The following applies: in vivo. On the technique in general: Xenograft models place foreign cells or tissue in a host animal.

Usually IC50 stands for the concentration that inhibits the measured activity by half. Read a low IC50 as greater potency in that assay.

Cytochrome P450 2C19, sequence (P33261 whole entry): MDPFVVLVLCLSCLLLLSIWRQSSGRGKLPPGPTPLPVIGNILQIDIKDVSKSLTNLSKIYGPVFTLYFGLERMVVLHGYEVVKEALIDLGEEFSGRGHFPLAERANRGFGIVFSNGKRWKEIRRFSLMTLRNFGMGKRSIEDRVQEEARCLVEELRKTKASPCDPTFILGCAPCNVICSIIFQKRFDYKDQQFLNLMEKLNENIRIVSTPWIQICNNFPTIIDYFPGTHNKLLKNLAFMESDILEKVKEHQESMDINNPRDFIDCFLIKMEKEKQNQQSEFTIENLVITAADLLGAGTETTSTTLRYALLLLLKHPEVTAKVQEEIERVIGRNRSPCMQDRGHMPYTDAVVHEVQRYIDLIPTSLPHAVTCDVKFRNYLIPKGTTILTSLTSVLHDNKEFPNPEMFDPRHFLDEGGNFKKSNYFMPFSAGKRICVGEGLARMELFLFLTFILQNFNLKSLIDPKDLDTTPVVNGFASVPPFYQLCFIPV
Cytochrome P450 2C9, sequence (P11712 whole entry): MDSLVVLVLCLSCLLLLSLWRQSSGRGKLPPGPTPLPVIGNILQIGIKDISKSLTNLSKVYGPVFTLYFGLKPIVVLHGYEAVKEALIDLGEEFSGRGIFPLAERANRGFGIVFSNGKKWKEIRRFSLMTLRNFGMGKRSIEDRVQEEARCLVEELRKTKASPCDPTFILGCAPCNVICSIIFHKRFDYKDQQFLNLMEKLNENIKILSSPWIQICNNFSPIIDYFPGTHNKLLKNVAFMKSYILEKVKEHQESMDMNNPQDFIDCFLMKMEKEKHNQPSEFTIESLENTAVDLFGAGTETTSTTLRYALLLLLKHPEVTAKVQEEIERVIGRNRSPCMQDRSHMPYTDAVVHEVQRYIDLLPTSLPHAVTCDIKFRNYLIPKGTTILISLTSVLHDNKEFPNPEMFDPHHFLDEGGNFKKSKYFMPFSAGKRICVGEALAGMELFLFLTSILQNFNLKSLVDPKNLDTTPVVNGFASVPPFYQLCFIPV
Cytochrome P450 2D6, sequence (P10635 whole entry): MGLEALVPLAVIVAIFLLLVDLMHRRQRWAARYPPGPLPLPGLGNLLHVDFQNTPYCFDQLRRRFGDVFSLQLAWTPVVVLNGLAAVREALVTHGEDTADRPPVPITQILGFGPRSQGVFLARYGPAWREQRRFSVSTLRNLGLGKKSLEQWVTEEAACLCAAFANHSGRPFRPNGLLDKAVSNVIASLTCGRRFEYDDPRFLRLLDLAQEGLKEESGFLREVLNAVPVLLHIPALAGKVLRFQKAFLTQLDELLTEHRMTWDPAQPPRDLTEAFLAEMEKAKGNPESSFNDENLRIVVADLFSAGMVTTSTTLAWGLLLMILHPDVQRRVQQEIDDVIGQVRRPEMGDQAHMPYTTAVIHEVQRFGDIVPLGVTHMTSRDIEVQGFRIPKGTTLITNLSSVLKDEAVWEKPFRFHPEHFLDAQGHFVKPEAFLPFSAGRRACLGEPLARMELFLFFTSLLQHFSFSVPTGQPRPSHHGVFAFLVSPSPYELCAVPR
Cytochrome P450 3A4, sequence (P08684 whole entry): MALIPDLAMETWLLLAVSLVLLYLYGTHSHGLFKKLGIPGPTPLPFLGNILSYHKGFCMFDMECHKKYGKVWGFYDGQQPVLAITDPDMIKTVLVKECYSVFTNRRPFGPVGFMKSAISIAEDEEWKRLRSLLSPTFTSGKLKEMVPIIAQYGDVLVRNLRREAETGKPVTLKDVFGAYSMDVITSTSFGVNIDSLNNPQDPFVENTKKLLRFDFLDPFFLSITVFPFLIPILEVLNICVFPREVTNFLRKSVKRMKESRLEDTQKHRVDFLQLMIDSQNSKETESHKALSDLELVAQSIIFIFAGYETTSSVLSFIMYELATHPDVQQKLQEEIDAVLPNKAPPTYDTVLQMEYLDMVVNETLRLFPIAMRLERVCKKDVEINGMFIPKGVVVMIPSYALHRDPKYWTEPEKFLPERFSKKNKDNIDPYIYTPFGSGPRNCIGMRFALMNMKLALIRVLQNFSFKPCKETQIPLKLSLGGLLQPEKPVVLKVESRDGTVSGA

As to `CC(C)(C)c1[nH]cnc1/C=c1\[nH]c(=O)/c(=C/c2ccccc2)[nH]c1=O` [PLINABULIN], in data set [1], the remaining at 20 min, 1 µM stood at 98.2%. Moreover, the IC50 at Cytochrome P450 2D6 was more than 50 µM; against Cytochrome P450 2C9, 530 nM; against Cytochrome P450 1A2, 1240 nM; against Cytochrome P450 3A4, more than 50 µM; against Cytochrome P450 2C19, 4.23 µM. For the same compound, the Stability amounted to 29.64% in [2], 77.21% in [6], 34.94% in [7] and 65.58% in [19]. The remaining at 1.5 h, 1 µM in [3] stood at 110%. In addition, the remaining at 1 h, 50 µM in data set [4] was 44.8%. Also, the figures for the fraction unbound at 4 h, 2 µM in data set [5], in data set [11] and in data set [17] were 0.018, 0.028 and 0.039, respectively. Besides, the remaining at 20 min, 50 µM in data set [8] was found to be 63.5%. For the same compound, the t1/2 in data set [9] was found to be 59.34 min. In addition, the remaining at 5 min, 1 µM in data set [10] was determined as 95.5%. Further, the remaining at 40 min, 1 µM in [12] was 99%. Besides, in data set [13], the remaining at 2 h, 1 µM came out at 109%. The remaining at 1 h, 1 µM in [14] was 103%. In addition, the remaining at 40 min, 50 µM in [15] is 56.6%. In addition, in [16], the remaining at 1.5 h, 50 µM stood at 41.1%. For the same compound, in data set [18], the remaining at 2.5 h, 50 µM was 29.9%. The remaining at 2 h, 50 µM in data set [20] was determined as 29.9%. For the same compound, the remaining at 10 min, 1 µM in data set [21] was determined as 97.7%. For the same compound, the microsomal CLint at 50 µM in [22] came to 23.4 µL/min/mg.

As for `Nc1ccn([C@@H]2O[C@H](CO)[C@@H](O)C2(F)F)c(=O)n1` [GEMCITABINE], the Activity result with Mus musculus [23] is recorded as “Non-Toxic”.

With `COc1cc2ncnc(Nc3ccc(F)c(Cl)c3)c2cc1OCCCN1CCOCC1` [GEFITINIB], the Activity entry with Mus musculus [24] is “Non-Toxic”.

The record behind these values is ChEMBL document CHEMBL4229536, “In vitro and in vivo pharmacokinetic and pharmacodynamic study of MBRI-001, a deuterium-substituted plinabulin derivative as a potent anti-cancer agent” (Bioorg Med Chem, 2018).
